Assay results reported in US12296024B2, “Modified zinc oxide nanocomposite, antibiotic composition comprising the same, and combination preparation with the same” (UIF (University Industry Foundation), Yonsei University, priority 2021, dated 2025).

System: Aspergillus spores
Experiment: Effect of ions on fungal growth
Assay type: cell-based
Conditions: 1000 Aspergillus spores/dish, 37° C., day 3 of culture, FIG. 8B
Description: To investigate the effect of ions on fungal growth, salt solutions were added at a high molecular concentration (0.1 M, 10 μL) and a low molecular concentration ([…], 10 μL) and fungi were cultured at 37° C. under conditions of 1000 Aspergillus spores/dish. The results are illustrated in FIG. 8B based on the colonies on day 3 of culture.

O=[N+]([O-])[O-].O=[N+]([O-])[O-].[Zn+2] [Zn(NO3)2]
effect of ions on fungal growth compared with Na+, Mg2+ or NH4+ ions: greater effect

[Cl-].[Cl-].[Zn+2] [ZnCl2]
effect of ions on fungal growth compared with Na+, Mg2+ or NH4+ ions: greater effect
